Test results reported in patent US20250221966A1, “RXFP1 AGONISTS” (BRISTOL-MYERS SQUIBB COMPANY, priority 2021, published 2025).
Read-outs that look alike come from different tables or passages of the source.

Biological target: T1, human RXFP1 (Homo sapiens, UniProt Q9HBX9)
T1 construct: expressed in transfected cells
T1 sequence (Q9HBX9 1-757): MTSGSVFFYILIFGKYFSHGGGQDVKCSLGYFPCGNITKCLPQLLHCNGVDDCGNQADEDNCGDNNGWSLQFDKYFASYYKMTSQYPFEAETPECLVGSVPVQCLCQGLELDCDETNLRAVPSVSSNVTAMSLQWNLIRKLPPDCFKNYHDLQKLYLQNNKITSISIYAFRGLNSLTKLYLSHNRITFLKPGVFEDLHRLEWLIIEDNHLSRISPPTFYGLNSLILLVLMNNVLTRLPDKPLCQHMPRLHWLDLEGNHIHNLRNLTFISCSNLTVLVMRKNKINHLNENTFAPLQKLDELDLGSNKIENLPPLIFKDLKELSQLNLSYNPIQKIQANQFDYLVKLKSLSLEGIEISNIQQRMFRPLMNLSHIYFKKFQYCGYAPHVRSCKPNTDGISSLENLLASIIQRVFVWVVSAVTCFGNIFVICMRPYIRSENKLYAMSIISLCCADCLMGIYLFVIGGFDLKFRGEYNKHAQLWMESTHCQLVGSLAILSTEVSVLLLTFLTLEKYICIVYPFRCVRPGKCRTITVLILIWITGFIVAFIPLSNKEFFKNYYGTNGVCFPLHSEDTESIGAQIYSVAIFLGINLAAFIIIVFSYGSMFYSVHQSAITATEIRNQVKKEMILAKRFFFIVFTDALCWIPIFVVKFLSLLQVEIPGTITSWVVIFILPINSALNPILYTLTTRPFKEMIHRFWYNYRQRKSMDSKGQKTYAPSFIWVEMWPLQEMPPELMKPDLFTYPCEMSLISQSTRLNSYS
Assay: RXFP1 cAMP assay (hRXFP1 HEK293 cAMP assay, HTRF)
Assay type: cell-based
Outline: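 hRXFP1-HEK293 stable line; HBSS + Ca/Mg, 20 mM HEPES, 0.05% BSA, 0.5 mM IBMX; cpd 0.010 nM–50 μM, 2% DMSO; 30 min RT; lysis, HTRF cAMP detection; 4-PL fit.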

[1] = HEK293 cells stably expressing human RXFP1, 30 min at room temperature, read-out: cAMP hRXFP1 HEK293 Assay EC50

EC50 [1] | Structure (SMILES) | EC50 (cAMP hRXFP1 HEK293 Assay EC50, HEK293 cells stably expressing human RXFP1, 30 min at room temperature)
12.7 nM | COc1ccc(C2=NOC3CC(C#N)CC23)cc1C(=O)N[C@H]1[C@@H](C(=O)Nc2ccc(F)c(C(F)(F)F)c2)[C@H]2CC[C@@H]1/C2=C\C1CC1 (stereo partly drawn) [compound 506] | 
 | COc1cc(F)c(F)cc1C(=O)N[C@@H]1C2CCC(/C2=C2\C=Cc3ccccc32)[C@@H]1C(=O)Nc1ccc(F)c(C(F)(F)F)c1 (stereo partly drawn) [Example 33] | 310 nM
373 nM | COc1ccc(C2=NOC3COCC23)cc1C(=O)N[C@H]1[C@@H](C(=O)N[C@@H](C)c2ccccc2C(F)(F)F)[C@H]2CC[C@@H]1/C2=C\C1CC1 (stereo partly drawn) [compound 665] | 
5.4 nM | COc1ccc(-c2cc(C3=NOC(C(=O)O)C3)ccc2F)cc1C(=O)N[C@H]1[C@@H](C(=O)Nc2ccc(F)c(C(F)(F)F)c2)[C@H]2CC[C@@H]1/C2=C\C1CCCC1 (stereo partly drawn) [compound 945] | 
630 nM | COc1cc(F)c(F)cc1C(=O)N[C@@H]1C2CCC(/C2=C/c2ccc3ccccc3c2)[C@@H]1C(=O)Nc1ccc(F)c(C(F)(F)F)c1 (stereo partly drawn) [compound 18] | 
26 nM | COc1ccc(C2=NOC3CCCCCCC23)cc1C(=O)N[C@H]1[C@@H](C(=O)Nc2ccc(F)c(C(F)(F)F)c2)[C@H]2CC[C@@H]1/C2=C\C1CC1 (stereo partly drawn) [compound 537] | 
22.4 nM | COc1ccc(N2CC(CO)CC2=O)cc1C(=O)N[C@H]1[C@@H](C(=O)Nc2ccc(F)c(C(F)(F)F)c2)[C@H]2CC[C@@H]1/C2=C\C1CC1 (stereo partly drawn) [compound 526] | 
2600 nM | COc1cc(F)c(F)cc1C(=O)N[C@@H]1C2CCC(C2=C(C)C)[C@@H]1C(=O)Nc1ccnc(C(F)(F)F)c1 (stereo partly drawn) [compound 75] | 
240 nM | CNC(=O)c1ccc(F)c(-c2ccc(OC)c(C(=O)N[C@H]3[C@@H](C(=O)Nc4ccc(F)c(C(F)(F)F)c4)[C@H]4CC[C@@H]3C4=C(C)C)c2)c1 [compound 151] | 
4 nM | COc1ccc(C2=NOC3CC(C)(CO)CC23)cc1C(=O)N[C@H]1[C@@H](C(=O)N[C@H](C)C2(C)CC2)[C@H]2CC[C@@H]1/C2=C\c1csc(C(F)(F)F)n1 (stereo partly drawn) [compound 915] | 
2970 nM | COc1ccc(-c2cc(C(=O)O)ccc2F)cc1C(=O)N[C@@H]1C2CCC(/C2=C/C2CC2)[C@@H]1C(=O)NCc1ccccc1 (stereo partly drawn) [compound 260] | 
3.5 nM | COc1ccc(C2=NOC3CC(CO)CC23)cc1C(=O)N[C@H]1[C@@H](C(=O)Nc2ccc(F)c(C(F)(F)F)c2)[C@H]2CC[C@@H]1/C2=C\c1cncs1 (stereo partly drawn) [compound 803] | 
1 nM | COc1ccc(-c2ccc(C(CC(=O)O)C(F)(F)F)cc2F)cc1C(=O)N[C@H]1[C@@H](C(=O)Nc2ccc(F)c(C(F)(F)F)c2)[C@H]2CC[C@@H]1/C2=C\C1CC1 (stereo partly drawn) [compound 884] | 
1.9 nM | COc1ccc(C2=NO[C@H]3C[C@H](CO)C[C@@H]23)cc1C(=O)N[C@H]1[C@@H](C(=O)N[C@H](C)C2(C)CC2)[C@H]2CC[C@@H]1/C2=C\C1CCCC1 [compound 817] | 
8 nM | COc1ccc(-c2cc(C(OC(=O)NCC(F)(F)F)C(F)(F)F)ccc2F)cc1C(=O)N[C@@H]1C2CCC(/C2=C/C2CC2)[C@@H]1C(=O)Nc1ccc(F)c(C(F)(F)F)c1 (stereo partly drawn) [compound 220] | 
4.1 nM | COc1c(F)cc(C2=NOC3CC(CO)CC23)cc1C(=O)N[C@H]1[C@@H](C(=O)Nc2ccc(F)c(C(F)(F)F)c2)[C@H]2CC[C@@H]1/C2=C\CC(O)C(F)(F)F (stereo partly drawn) [compound 836] | 
3.4 nM | COc1ccc(-c2cc(C3=NOC4COCC34)ccc2F)cc1C(=O)N[C@H]1[C@@H](C(=O)Nc2ccc(F)c(C(F)(F)F)c2)[C@H]2CC[C@@H]1/C2=C\C1CC1 (stereo partly drawn) [compound 910] | 
19.3 nM | COc1ccc(C2=NOC3COCC23)cc1C(=O)N[C@H]1[C@@H](C(=O)NCCc2ccccc2C)[C@H]2CC[C@@H]1/C2=C\C1CC1 (stereo partly drawn) [compound 520] | 
118 nM | COc1ccc(C2=NOC(CO)C2)cc1C(=O)N[C@@H]1C2CCC(/C2=C/C2CC2)[C@@H]1C(=O)Nc1ccc(F)c(C(F)(F)F)c1 (stereo partly drawn) [compound 382] | 
2 nM | COc1ccc(-c2cc(C(OC(=O)Nc3ccccc3)C(F)F)ccc2F)cc1C(=O)N[C@H]1[C@@H](C(=O)Nc2ccc(F)c(C(F)(F)F)c2)[C@H]2CC[C@@H]1/C2=C\C1CC1 (stereo partly drawn) [Example 233, 1-(3′-(((1R,2R,3S,4R,Z)-7-(cyclopropylmethylene)-3-((4-fluoro-3-(trifluoromethyl)phenyl)carbamoyl)bicyclo[2.2.1]heptan-2-yl)carbamoyl)-6-fluoro-4′-methoxy-[1,1′-biphenyl]-3-yl)-2,2-difluoroethyl phenylcarbamate] | 

EC50 [1] | Structure (SMILES) | EC50 (cAMP hRXFP1 HEK293 Assay EC50, HEK293 cells stably expressing human RXFP1, 30 min at room temperature)
2.5 nM | COc1ccc(-c2cc([C@H](OC(=O)NC3CC3)C(F)(F)F)ccc2F)cc1C(=O)N[C@H]1[C@@H](C(=O)Nc2ccc(F)c(C(F)(F)F)c2)[C@H]2CC[C@@H]1/C2=C\C1CC(F)(F)C1 [compound 931] | 
41.7 nM | CN(C)c1c(Cl)cc(C2=NOC3COCC23)cc1C(=O)N[C@H]1[C@@H](C(=O)Nc2ccc(F)c(C(F)(F)F)c2)[C@H]2CC[C@@H]1/C2=C\C(F)(F)F (single isomer, unassigned) [compound 556] | 
33 nM | COc1ccc(C2=NOC(C3(O)CCCCC3)C2)cc1C(=O)N[C@H]1[C@@H](C(=O)Nc2ccc(F)c(C(F)(F)F)c2)[C@H]2CC[C@@H]1/C2=C\C1CC1 (single isomer, unassigned) [compound 549] | 
2.5 nM | COc1ccc(-c2ccc(C(CC(=O)O)C(F)(F)F)cc2F)cc1C(=O)N[C@H]1[C@@H](C(=O)Nc2ccc(F)c(C(F)(F)F)c2)[C@H]2CC[C@@H]1/C2=C\C1CC1 (stereo partly drawn) [compound 883] | 
91 nM | O=C(O)c1ccc(F)c(-c2ccc(OCCO)c(C(=O)N[C@@H]3C4CCC(/C4=C/C(F)(F)F)[C@@H]3C(=O)Nc3ccc(F)c(C(F)(F)F)c3)c2)c1 (stereo partly drawn) [compound 321] | 
32 nM | COc1ccc(-c2cccnc2)cc1C(=O)N[C@@H]1C2CCC(/C2=C/C2CC2)[C@@H]1C(=O)Nc1ccc(F)c(C(F)(F)F)c1 (stereo partly drawn) [compound 278] | 
3.1 nM | COc1c(F)cc(C2=NO[C@@H]3C[C@H](CO)CN23)cc1C(=O)N[C@H]1[C@@H](C(=O)Nc2ccc(F)c(C(F)(F)F)c2)[C@H]2CC[C@@H]1/C2=C\C1CC1 [compound 852] | 
790 nM | COc1cc(F)c(F)cc1C(=O)N[C@@H]1C2CCC(C2=C(C)C)[C@]1(F)C(=O)Nc1ccc(F)c(C(F)(F)F)c1 (stereo partly drawn) [Example 51] | 
55 nM | COc1ccc(C2=NOC(C)(C(=O)O)C2)cc1C(=O)N[C@@H]1C2CCC(/C2=C/C2CC2)[C@@H]1C(=O)Nc1ccc(F)c(C(F)(F)F)c1 (stereo partly drawn) [compound 422] | 
360 nM | COc1ccc(C2=NOC3CCCC23)cc1C(=O)N[C@H]1[C@@H](C(=O)Nc2ccc(F)c(C(F)(F)F)c2)[C@H]2CC[C@@H]1/C2=C\C1CC1 (single isomer, unassigned) [compound 662] | 
791 nM | COc1ccc(C2=NOC3COCC23)c(F)c1C(=O)N[C@H]1[C@@H](C(=O)Nc2ccc(F)c(C(F)(F)F)c2)[C@H]2CC[C@@H]1/C2=C\C1CC1 (single isomer, unassigned) [compound 693] | 
0.9 nM | COc1ccc(-c2cc(C(OC(=O)NC(C)(C)C)C(=O)O)ccc2F)cc1C(=O)N[C@H]1[C@@H](C(=O)Nc2ccc(F)c(C(F)(F)F)c2)[C@H]2CC[C@@H]1/C2=C\C1CCCC1 (stereo partly drawn) [compound 933] | 
658 nM | COCCOC1(C2CC(c3ccc(OC)c(C(=O)N[C@H]4[C@@H](C(=O)Nc5ccc(F)c(C(F)(F)F)c5)[C@H]5CC[C@@H]4/C5=C\C4CC4)c3)=NO2)CC1 (single isomer, unassigned) [compound 687] | 
11 nM | COc1ccc(-c2cc(C(O)C(=O)O)ccc2F)cc1C(=O)NC1C2CCC(/C2=C/CCC(C)(C)C)C1C(=O)Nc1ccc(F)c(C(F)(F)F)c1 (stereo not drawn) [compound 354] | 
54 nM | COc1ccc(C2=NOC(C(=O)O)C2)cc1C(=O)N[C@@H]1C2CCC(/C2=C/C(F)(F)F)[C@@H]1C(=O)Nc1ccc(F)c(C(F)(F)F)c1 (stereo partly drawn) [compound 389] | 
4810 nM | COc1ccc(N2CCCC(CO)C2)cc1C(=O)NC1C2CCC(/C2=C/C(F)(F)F)C1C(=O)Nc1ccc(F)c(C(F)(F)F)c1 (stereo in doubt) [Example 329, (1R,2R,3R,4R,Z)—N-(4-fluoro-3-(trifluoromethyl)phenyl)-3-(5-(3-(hydroxymethyl)piperidin-1-yl)-2-methoxybenzamido)-7-(2,2,2-trifluoroethylidene)bicyclo[2.2.1]heptane-2-carboxamide] | 
940 nM | COc1ccc(/C=C2\C3CCC2[C@H](C(=O)Nc2ccc(F)c(C(F)(F)F)c2)[C@@H]3NC(=O)c2cc(F)c(F)cc2OC)cc1 (stereo partly drawn) [compound 20] | 
1.1 nM | COCCCOc1c(F)cc(C2=NOC3COCC23)cc1C(=O)N[C@H]1[C@@H](C(=O)Nc2ccc(F)c(C(F)(F)F)c2)[C@H]2CC[C@@H]1/C2=C\C1CC1 (stereo partly drawn) [compound 778] | 
22.4 nM | COc1ccc(C2=NOC(CC(C)(C)O)C2)cc1C(=O)N[C@H]1[C@@H](C(=O)Nc2ccc(F)c(C(F)(F)F)c2)[C@H]2CC[C@@H]1/C2=C\C1CC1 (single isomer, unassigned) [compound 528] | 
